Test results: patent US20140335532A1, “HUMAN SKIN SAMPLE METHODS AND MODELS FOR VALIDATING HYPOTHESES FOR MECHANISMS DRIVING SKIN PIGMENTATION” (The Procter & Gamble Company, priority 2011, published 2014)

How the values were obtained:
9 epidermal tone genes [1] = experiment: Endogenously driven ex-vivo human skin tissue, transcription of epidermal tone genes vs untreated control; format: cell-based; settings: for # Genes (out of 9) with p ≦ 0.1: endogenously driven tissue sample, 37° C. and 70% humidity, epidermal genes regulated vs untreated control, 2-10 experiments each
Method: Referring to FIGS. 11 to 15, examples are shown for the regulation of the 9 epidermal tone genes against an untreated control in an endogenously driven ex-vivo tissue system at 37° C. and 70% humidity for niacinamide, hexamidine, N-Acetyl glucosamine, kojic acid, tranexamic acid, and undecylenoyl phenylalanine (2-10 experiments each). […] For instance, out of the 9 epidermal genes, at least one compound (Hexamidine) regulated 9 genes (with a statistical significance of p<0.1 or better) while two compounds regulated 5 or fewer genes (with a p<0.1 or better). Table 1 below summarizes the number of epidermal genes regulated by certain materials in an endogenously driven tissue sample with a statistical significance of p≦0.1.
Culturing involved setting up culture plates: putting 2.5 ml of media or treatment into each well of a 6-well tissue plate, adding one Millicell culture insert to each well, and putting 100 μl of 1×DMEM on the center of each insert membrane. Squares were selected randomly placed into each of the inserts (one piece of skin per insert), on top of the media on the membrane. The plates were stored at either 33° C. (though an additional non-limiting example would be 37° C. depending on the experiment endpoint). As a control, baseline tissue measurements were collected from excess waste (cryogenics were used for snap freezing). Baseline biopsy collection involved two 4 mm punches for MTT; One 4 mm punch was snap frozen in OCT for fresh histology; One 4 mm punch was fixed in 10% formalin and sent out for paraffin embedding. PCR baseline was also be taken with six 4 mm punches snap frozen in liquid nitrogen.
Culture and treatment of the model comprised replicates of n=5 (though replicates of additional quantities may be used such as n=6). Media Dosing of skin involved solubilizing used in appropriate solvents (including PBS, Media, alcohol, and DMSO; in using DMSO, the final concentration in the plate was restricted to 0.01%). Appropriate dilutions were made for treatment: 15 ml of media were required per plate per day for treatment, with 2.5 ml of media required per well under the cell culture insert. Media was pre-warmed and changed every day during the experiment.
Skin was topically dosed. To do so, formulation for a compound of interest was obtained. Variation was minimized by having a vehicle that was as close to test formula as possible (making sure glycerin concentration was the same, determining if there was a vitamin package in the formula, determining if there was niacimamide; all of these were the same between the vehicle control formula and the test formula) (in ideal embodiments, the only difference is the unknown test compound). The skin was treated using a positive displacement pipette with 20 ul of formulation. A sterile cotton swab was used after application to spread and rub in the formula. Media was changed every day. The media was aspirated and replaced with fresh warmed media at a level of 2.5 ml per well.
For cryopreparation and extraction the following equipment was obtained and prepared: 2 ml round bottom tubes were prepared with 1 ml of TRIZOL as was a 5 mm stainless steel bead for each sample; a dry ice bucket was obtained and liquid nitrogen was placed in the bucket. Biopsy punches were maintained on dry ice, and samples remained frozen. Cryobags and covaris cryoprep were used in freeze fracturing of samples. To freeze fracture the samples, biopsies were placed in a cryo bag (2 per sample) and dipped in liquid nitrogen, then placed in cryoprep (setting 4). The sample bag was taken out and dipped back into nitrogen. A flattened disk was removed and placed into corresponding 2 ml tubes with TRIZOL. The disk was kept frozen in the TRIZOL. The tube was closed and snap frozen, and the whole tube was placed in liquid nitrogen. After repeating the process with all the samples, samples were placed into boxes and stored at −80 until the next step. […]

9 epidermal tone genes [2] = experiment: Stem Cell Factor/Endothelin 1 driven ex-vivo human skin tissue, transcription of epidermal tone genes vs untreated control; format: cell-based; settings: Stem Cell Factor/Endothelin 1 driven tissue sample; 37° C. and 70% humidity; out of 9 epidermal genes; 2-10 experiments each
Method: Referring to FIGS. 19 to 23, examples (of 2-10 experiments each) are shown for the regulation of the 9 epidermal tone genes against an untreated control in ex-vivo tissue driven by the combination of Stem Cell Factor and Endothelin at 37° C. and 70% humidity for niacinamide, hexamidine, N-Acetyl glucosamine, kojic acid, tranexamic acid, and undecylenoyl phenylalanine. […] For instance, out of the 9 epidermal genes, at least one compound (undecylenoyl phenylalanine) regulated 5 genes (with a statistical significance of p<0.1 or better) while two compounds regulated 2 or fewer genes (with a p<0.1 or better). Table 2 below summarizes the number of epidermal genes regulated by certain materials in a Stem Cell Factor/Endothelin 1 driven tissue sample with a statistical significance of p≦0.1.
In example embodiments, tone is driven by application of stem cell factor and/or endothelin (with skin preparation, culturing, and mRNA processing being completed as previously described). In an example embodiment, skin samples are placed within 6-well plates, with 2.5 ml of media per well. A concentration of eighty nanograms per milliliter of stem cell factor as well as eighty nanograms per milliliter of endothelin was applied to tissue in the wells, with the media being refreshed daily. The culture was maintained for seven days. Inhibitors of tone-related genes were applied; hexamidine and undecylenoyl phenylalanine were applied topically and daily in vehicles at 0.1% and 0.25%, respectively.

[3] = test system: rat melanoma line known to produce melanin; experiment: Total melanin assay in melanoma cell line; format: cell-based; settings: rat melanoma cell cultures
Method: (§1) The ex-vivo screening method has provided identification of agents consistent with in-vitro studies and which have proven positive clinically. One such example is hexyldecanol. […] For example, total melanin assays were performed using a rat melanoma line known to produce melanin. […] Therefore, promising tone agents such as hexyldecanol identified from the in-vitro model and the ex-vivo model have been tested in clinical settings.

tone genes = experiment: Human Ex-vivo Pre-Clinical Model, fold regulation of tone genes by clinical formulations; format: cell-based; settings: FIGS. 25a and 25b
Method: FIGS. 25a and 25b show two respective tables showing ex-vivo model fold regulation changes indicating significant down-regulation by clinical formulations in the Human Ex-vivo Pre-Clinical Model.
as §1

[4] = test system: facial skin pigmentation (spots, melanin evenness); experiment: 9-week clinical study, randomized, double-blind, vehicle-controlled, split-face; format: in vivo, human; settings: 9-week study
Text: For example, hexyldecanol was compared to vehicle controls and positive controls (5% Niacinamide+1% undecylenoyl phenylalanine) through a 9-week period. Specifically the trial included a 9-week clinical study with a randomized, double-blind, round robin, vehicle-controlled, split-face design, including one week normalization period whereby 330 subjects received test product.

tone genes of interest = experiment: Ex-vivo tissue culture exposed to compounds known to stimulate the pigmentation pathway, tone gene regulation; format: cell-based, human; settings: p≦0.1, minimum of 2-10 experiments each, FIG. 16

Compound	# Genes (out of 9) with p ≦ 0.1 (9 epidermal tone genes [1])	# of Genes with p ≦ 0.1 (9 epidermal tone genes [2])	other results
N=C(N)c1ccc(OCCCCCCOc2ccc(C(=N)N)cc2)cc1 [Hexamidine, hexamidine]	9	4	
CCCCCCCCC(CO)CCCCCC (centres unmarked) [Hexyldecanol, hexyldecanol]			Total melanin produced as compared to controls [3]: decreased; Ex-vivo model gene regulation (tone genes): down-regulation; Overall clinical outcome vs vehicle ([4]; 330 subjects, significant if p<0.10 (1-sided) vs. vehicle): statistically better than vehicle controls; Melanin evenness ([4]; versus the vehicle control): significantly different from controls; Spot area fraction (total area of spots per face) ([4]; versus vehicle control group): significantly different from controls
O=c1cc(CO)occ1O [Kojic Acid, kojic acid]	5	2	
CC(=O)N[C@H]1C(O)O[C@H](CO)[C@@H](O)[C@@H]1O (some centres unmarked) [NAG, N-Acetyl glucosamine]	6	1	
NC(=O)c1cccnc1 [Niacinamide, niacinamide]	7	3	Down-regulation of tone genes by donor Fitzpatrick type (9 epidermal tone genes [1]; 5% niacinamide, Fitzpatrick V donor vs two Fitzpatrick III donors, FIG. 1): more challenging to down-regulate
C=CCCCCCCCCC(=O)N[C@@H](Cc1ccccc1)C(=O)O [Undecylenoyl phenylalanine, undecylenoyl phenylalanine]	3	5	
Stem Cell Factor: compound known to stimulate the pigmentation pathway; paracrine agent			Regulation of tone genes of interest (tone genes of interest): up regulate one or more tone genes of interest
tranexamic acid	7	3	
α-MSH			Regulation of tone genes of interest (tone genes of interest): up regulate one or more tone genes of interest
